According to patent publication US12084445B2, “Broad-spectrum carbapenems” (VenatoRx Pharmaceuticals, Inc., priority 2018, dated 2024):

Experiments:
Type in all cases: cell-based
[1] = tested on: P. aeruginosa ΔmexAB-OprM (an efflux pump knockout); experiment: broth microdilution MIC assay, P. aeruginosa ΔmexAB-OprM; conditions: Pseudomonas aeruginosa, 20 h, read-out: P. aeruginosa ΔmexAB-OprM MIC
Procedure: (§1) To determine the ability of test compounds to potentiate the inhibition of the growth of bacterial strains, classic cell-based broth microdilution MIC assays were employed. MIC assays are performed according to CLSI methods except where otherwise noted (CLSI, 2011 and CLSI, 2009). The reference strains S. aureus ATCC 29213 (methicillin sensitive), S. aureus ATCC 33591 (methicillin-resistant), E. coli ATCC 25922 (wild-type/QC strain), P. aeruginosa ATCC 27853 (wild-type/QC strain), and the clinical isolate P. aeruginosa PA 8 were used to determine the ability of the exemplary carbapenem compounds to inhibit bacterial growth. An expanded panel of methicillin resistance S. aureus (MRSA) and Pseudomonas was also used to determine the ability of exemplary carbapenem compounds to inhibit bacterial growth across a broader representation of those species. To determine activity in MRSA and in addition to S. aureus ATCC 33591, S. aureus USA 300, USA 400 and USA 600, some of the most common clones found to cause human infection, were also used. To further gauge the impact on the carbapenem compounds due to various resistance mechanisms in Pseudomonas, the following strains were included: P. aeruginosa 35151 (hyper-permeable strain), P. aeruginosa AmexAB-OprM (an efflux pump knockout), and P. aeruginosa PA 3 (a clinical isolate of reduced carbapenem susceptibility). Briefly, cryo-preserved bacterial cultures of clinical strains are streaked for isolation on appropriate agar medium, in this case Mueller Hinton II agar. Following incubation to allow formation of colonies, these plates are sealed with parafilm and stored refrigerated for up to two weeks. For preparation of assay inocula and to ensure low variability, at least 5 colonies are picked from the agar plates with an inoculating loop and aseptically transferred to a culture tube containing 3 mL of Mueller-Hinton Broth (supplemented with divalent cations to required levels based on Manufacturers' specification). The broth culture is grown for 3-5 hours at 37° C. with shaking at 200 rpm. Meanwhile, 2-fold serial dilutions of test compounds are conducted in a 96 well plate with a final volume of 75 μL per well at 2-fold the final desired concentration. After the dilution plates are set up the growing cultures are then diluted in a cuvette containing MH II broth and the optical density is measured at 600 nm. Inocula are diluted such that 75 μL of this culture in Mueller-Hinton Broth results in a starting bacterial concentration of 5×10^5 CFU/mL when added to the dilution plates. The plates are incubated 16-20 hours at 37° C. The MIC is read visually as the lowest concentration well with no bacterial growth.
(§2) Representative results are shown in Tables 3, 4, and 5 where A represents an MIC>32 μg/mL, B represents an MIC between 8 and 32 μg/mL inclusive, C represents an MIC between 1 and 4 μg/mL inclusive, and D represents an MIC of <1 μg/mL. NT=Not Tested.

[2] = tested on: P. aeruginosa ATCC 27853 (wild-type/QC strain); experiment: broth microdilution MIC assay, P. aeruginosa ATCC 27853; conditions: Pseudomonas aeruginosa, ATCC27853; Table 5; P. aeruginosa 27853; read-out: P. aeruginosa 27853 MIC
Procedure: as §1, §2

[3] = tested on: E. coli ATCC 25922 (wild-type/QC strain); experiment: broth microdilution MIC assay, E. coli ATCC 25922; conditions: Escherichia coli, ATCC25922; Table 4; E. coli 25922; read-out: E. coli 25922 MIC
Procedure: as §1, §2

[4] = tested on: S. aureus ATCC 33591 (methicillin-resistant); experiment: broth microdilution MIC assay, S. aureus ATCC 33591; conditions: Staphylococcus aureus, ATCC33591; Table 4; S. aureus 33591; read-out: S. aureus 33591 MIC
Procedure: as §1, §2

S. aureus USA600 = experiment: broth microdilution MIC assay, S. aureus USA 600; conditions: Staphylococcus aureus; Table 4; S. aureus USA600; read-out: S. aureus USA600 MIC
Procedure: as §1, §2

S. aureus USA 300 = experiment: broth microdilution MIC assay, S. aureus USA 300; conditions: Staphylococcus aureus; Table 4; S. aureus USA300; read-out: S. aureus USA300 MIC
Procedure: as §1, §2

[5] = tested on: P. aeruginosa 35151 (hyper-permeable strain); experiment: broth microdilution MIC assay, P. aeruginosa 35151; conditions: Pseudomonas aeruginosa, read-out: P. aeruginosa 35151 MIC
Procedure: as §1, §2

SMILES	MIC [1] [µg/mL]	MIC [2] [µg/mL]	MIC [3] [µg/mL]	MIC [4] [µg/mL]	MIC (S. aureus USA600) [µg/mL]	MIC (S. aureus USA 300) [µg/mL]	MIC [5] [µg/mL]
C[C@@H](O)[C@H]1C(=O)N2C(C(=O)O)=C(SC3CN(CC4CCCNC4)C3)[C@H](C)[C@H]12 (stereo partly drawn) [Example 57, (4R,5S,6S)-6-((R)-1-hydroxyethyl)-4-methyl-7-oxo-3-((1-(piperidin-3-ylmethyl)azetidin-3-yl)thio)-1-azabicyclo[3.2.0]hept-2-ene-2-carboxylic acid]	1 to 4	1 to 4	< 1	8 to 32	1 to 4	1 to 4	< 1
C[C@@H](O)[C@H]1C(=O)N2C(C(=O)O)=C(SC3CN(C[C@@H]4CCNC4)C3)[C@H](C)[C@H]12 [Example 58, (4R,5S,6S)-6-((R)-1-hydroxyethyl)-4-methyl-7-oxo-3-((1-(((R)-pyrrolidin-3-yl)methyl)azetidin-3-yl)thio)-1-azabicyclo[3.2.0]hept-2-ene-2-carboxylic acid]	1 to 4	1 to 4	< 1	1 to 4	1 to 4	1 to 4	< 1
C[C@@H](O)[C@H]1C(=O)N2C(C(=O)O)=C(SC3CN(C[C@H]4CCNC4)C3)[C@H](C)[C@H]12 [Example 59, (4R,5S,6S)-6-((R)-1-hydroxyethyl)-4-methyl-7-oxo-3-((1-(((S)-pyrrolidin-3-yl)methyl)azetidin-3-yl)thio)-1-azabicyclo[3.2.0]hept-2-ene-2-carboxylic acid]	1 to 4	1 to 4	< 1	1 to 4	1 to 4	1 to 4	< 1
C[C@@H](O)[C@H]1C(=O)N2C(C(=O)O)=C(SC3CN(C[C@H]4CNCCO4)C3)[C@H](C)[C@H]12 [Example 60, (4R,5S,6S)-6-((R)-1-hydroxyethyl)-4-methyl-3-((1-(((R)-morpholin-2-yl)methyl)azetidin-3-yl)thio)-7-oxo-1-azabicyclo[3.2.0]hept-2-ene-2-carboxylic acid]	1 to 4	8 to 32	< 1	8 to 32	1 to 4	1 to 4	< 1
C[C@@H](O)[C@H]1C(=O)N2C(C(=O)O)=C(SC3CN(C[C@@H]4CNCCO4)C3)[C@H](C)[C@H]12 [Example 61, (4R,5S,6S)-6-((R)-1-hydroxyethyl)-4-methyl-3-((1-(((S)-morpholin-2-yl)methyl)azetidin-3-yl)thio)-7-oxo-1-azabicyclo[3.2.0]hept-2-ene-2-carboxylic acid]	1 to 4	1 to 4	< 1	8 to 32	1 to 4	1 to 4	< 1
C[C@@H](O)[C@H]1C(=O)N2C(C(=O)O)=C(SC3CN(C[C@H]4CC[C@H](N)CC4)C3)[C@H](C)[C@H]12 [Example 62, (4R,5S,6S)-3-((1-(((1r,4R)-4-aminocyclohexyl)methyl)azetidin-3-yl)thio)-6-((R)-1-hydroxyethyl)-4-methyl-7-oxo-1-azabicyclo[3.2.0]hept-2-ene-2-carboxylic acid]	1 to 4	1 to 4	< 1	1 to 4	< 1	1 to 4	< 1
C[C@@H](O)[C@H]1C(=O)N2C(C(=O)O)=C(S[C@@H]3CCN(CC4CNCCS4)C3)[C@H](C)[C@H]12 (stereo partly drawn) [Example 63, (4R,5S,6S)-6-((R)-1-hydroxyethyl)-4-methyl-7-oxo-3-(((3R)-1-(thiomorpholin-2-ylmethyl)pyrrolidin-3-yl)thio)-1-azabicyclo[3.2.0]hept-2-ene-2-carboxylic acid]	1 to 4	8 to 32	< 1	1 to 4	1 to 4	1 to 4	< 1
C[C@@H](O)[C@H]1C(=O)N2C(C(=O)O)=C(SC3CN(C[C@H]4CC[C@@H](N)CC4)C3)[C@H](C)[C@H]12 [Example 64, (4R,5S,6S)-3-((1-(((1s,4S)-4-aminocyclohexyl)methyl)azetidin-3-yl)thio)-6-((R)-1-hydroxyethyl)-4-methyl-7-oxo-1-azabicyclo[3.2.0]hept-2-ene-2-carboxylic acid]	1 to 4	1 to 4	< 1	1 to 4	< 1	< 1	< 1
C[C@@H](O)[C@H]1C(=O)N2C(C(=O)O)=C(S[C@@H]3CCN(CC4CCNCC4(C)C)C3)[C@H](C)[C@H]12 (stereo partly drawn) [Example 65, (4R,5S,6S)-3-(((3R)-1-((3,3-dimethylpiperidin-4-yl)methyl)pyrrolidin-3-yl)thio)-6-((R)-1-hydroxyethyl)-4-methyl-7-oxo-1-azabicyclo[3.2.0]hept-2-ene-2-carboxylic acid]	1 to 4	8 to 32	< 1	1 to 4	1 to 4	1 to 4	< 1
CNC1CCC(CN2CC(SC3=C(C(=O)O)N4C(=O)[C@H]([C@@H](C)O)[C@H]4[C@H]3C)C2)CC1 (stereo partly drawn) [Example 66, (4R,5S,6S)-6-((R)-1-hydroxyethyl)-4-methyl-3-((1-(((1s,4S)-4-(methylamino)cyclohexyl)methyl)azetidin-3-yl)thio)-7-oxo-1-azabicyclo[3.2.0]hept-2-ene-2-carboxylic acid]	1 to 4	1 to 4	< 1	1 to 4	1 to 4	1 to 4	< 1
C[C@@H](O)[C@H]1C(=O)N2C(C(=O)O)=C(SC3CN(C[C@H]4CC[C@H](NC(=N)N)CC4)C3)[C@H](C)[C@H]12 [Example 67, (4R,5S,6S)-3-((1-(((1r,4R)-4-guanidinocyclohexyl)methyl)azetidin-3-yl)thio)-6-((R)-1-hydroxyethyl)-4-methyl-7-oxo-1-azabicyclo[3.2.0]hept-2-ene-2-carboxylic acid]	1 to 4	1 to 4	< 1	1 to 4	< 1	1 to 4	< 1
CN[C@H]1CC[C@H](CN2CC(SC3=C(C(=O)O)N4C(=O)[C@H]([C@@H](C)O)[C@H]4[C@H]3C)C2)CC1 [Example 68, (4R,5S,6S)-6-((R)-1-hydroxyethyl)-4-methyl-3-((1-(((1r,4R)-4-(methylamino)cyclohexyl)methyl)azetidin-3-yl)thio)-7-oxo-1-azabicyclo[3.2.0]hept-2-ene-2-carboxylic acid]	1 to 4	1 to 4	< 1	1 to 4	1 to 4	1 to 4	< 1
CCN[C@H]1CC[C@H](CN2CC(SC3=C(C(=O)O)N4C(=O)[C@H]([C@@H](C)O)[C@H]4[C@H]3C)C2)CC1 [Example 69, (4R,5S,6S)-3-((1-(((1r,4R)-4-(ethylamino)cyclohexyl)methyl)azetidin-3-yl)thio)-6-((R)-1-hydroxyethyl)-4-methyl-7-oxo-1-azabicyclo[3.2.0]hept-2-ene-2-carboxylic acid]	1 to 4	1 to 4	< 1	1 to 4	1 to 4	1 to 4	< 1
